Data on ten compounds can be found in US20230295133A1, “PROCESS FOR PREPARING A COMPOUND USEFUL TO TREAT MYCOSES” (PULMOCIDE LIMITED, priority 2014, published 2023).

SMILES strings stand for the structures. Converted amounts (≈) assume the structure as drawn.

In data set [1] the test system is aspergillus fumigatus infection of BEAS2B cells. Kind of data set: Aspergillus fumigatus infection of bronchial epithelial cells (GM in supernatant). The data set is classed as cell-based. The following applies: bronchial epithelial cells infected with Aspergillus fumigatus; read-out: MIC50 Infection of BEAS2B cells. The method, then: BEAS2B cells were seeded in 96-well plates (100 µL; 30,000 cells / well; Catalogue No 3596, Sigma Aldrich, Dorset, UK) in 10% FBS RPMI-1640 and were then incubated (37° C., 5% CO2) for one day before experimentation. Test compounds (0.5 µL DMSO solution) or vehicle (DMSO) were added to each well to give a final DMSO concentration of 0.5%. BEAS2B cells were incubated with test compounds for 1 hr (35° C., 5% CO2) before infection with aspergillus fumigatus (20 µL; Public Health England) conidia suspension (0.5×10^5 /ml in 10% FBS RPMI-1640). The plate was incubated for 24 hr (35° C., 5% CO2). Supernatant (50 µL) was collected and transferred to a PCR plate (Catalogue No L1402-9700, Starlab, Milton Keynes, UK), which was frozen (-20° C.) until use. After thawing, supernatant (5 µL) was diluted 1:20 by adding R7-PBS solution (95 µL; 1:4 R7 to PBS; Bio-Rad Laboratories, Redmond, WA, USA). GM levels in these samples (50 µL) were measured using Platelia GM-EIA kits (Bio-Rad Laboratories, Redmond, WA, USA). The percentage inhibition for each well was calculated and the IC50 value was calculated from the concentration-response curve generated for each test compound.

A short description of data set [2]: Cell viability: resazurin assay. Format: cell-based, human. To be noted: human, BEAS2B cells; n = 3-5. The method, then: BEAS2B cells were seeded in 384-well plates (100 µL; 3000 / well /; BD Falcon, Catalogue No 353962) in RPMI-LHC8 (RPMI-1640 and LHC8 media combined in equal proportions) one day before experimentation. For cell-free control wells, RPMI-LHC8 (100 µL) was added. Test compounds (0.5 µL of a DMSO solution) were added to give a final DMSO concentration of 0.5% using an Integra VIAFLO 96 (Integra, Zizers, Switzerland). BEAS2B cells were incubated with each test compound for 1 day (37° C. / 5% CO2 in RPMI-LHC8). After addition of resazurin stock solution (5 µL, 0.04%) the plates were incubated for a further 4 hr (37° C. / 5% CO2). The fluorescence of each well at 545 nm (excitation) and 590 nm (emission) was determined using a multi-scanner (Clariostar: BMG Labtech). The percentage loss of cell viability was calculated for each well relative to vehicle (0.5% DMSO) treatment. Where appropriate, a CC50 value was calculated from the concentration-response curve generated from the concentration-response curve for each test compound.

Data set [3] deals with Aspergillus fumigatus L98H (TR34/L98H). Description: Broth microdilution assay (modified EUCAST). The data set is classed as cell-based. To be noted: Aspergillus fumigatus, read-out: MIC75 against Aspergillus fumigatus isolate L98H. The procedure: (§1) This assay was conducted using a modified method published by EUCAST (Rodriguez-Tudela et al., 2008). Spores of aspergillus fumigatus (NCPF2010, NCPF7010 (Methionine 220 mutation), NCPF7099 (Glycine G54 mutation) from Public Health England, Wiltshire; TR34/L98H mutants from St Louis Hospital, Paris, France) were cultured in Sabouraud dextrose agar for 3 days. A stock spore suspension was prepared from a Sabouraud dextrose agar culture by washing with PBS-tween (10 mL; PBS containing 0.05% Tween-20, 100 U/mL Penicillin and 100 U/mL Streptomycin). The spore count was assessed using a Neubauer haemocytometer and then adjusted to 10^6 spores/mL with PBS. A working suspension of spores (2 × 10^5 spores/mL) was prepared in filter sterilised, BSA MOPS RPMI-1640 (50 mL; RPMI-1640 containing 2 mM L-glutamine, 0.5% BSA, 2% glucose, 0.165 M MOPS, buffered to pH 7 with NaOH). For the assay, BSA MOPS RPMI-1640 (50 µL/well) was added throughout the 384-well plate (Catalogue number 353962, BD Falcon, Oxford, UK) first. Test compounds (0.5 µL DMSO solution) were then added in quadruplicate using an Integra VIAFLO 96 (Integra, Zizers, Switzerland), and mixed well using a plate mixer. Subsequently 50 µL of the working spore suspension prepared above was added to all wells except non-spore control wells. For non-spore control wells, BSA MOPS-RPMI solution (50 µL/well) was added instead. The plate was covered with a plastic lid, and incubated (35° C. with ambient air) for 48 hr. The OD of each well at 530 nm was determined using a multi-scanner (Clariostar: BMG, Buckinghamshire, UK). The percentage inhibition for each well was calculated and the MIC50, MIC75 and MIC90 values were calculated from the concentration-response curve generated for each test compound.

Data set [4] relates to Aspergillus fumigatus NCPF2010. Description: Broth microdilution assay (modified EUCAST). The data set is classed as cell-based. To be noted: Aspergillus fumigatus, NCPF2010, read-out: MIC75 against Aspergillus fumigatus isolate NCPF2010. The method, then: as §1
Data set [5] has as its system Aspergillus fumigatus NCPF7099. Description: Broth microdilution assay (modified EUCAST). Format: cell-based. The following applies: Aspergillus fumigatus, NCPF7099, n = 3, read-out: MIC75 against Aspergillus fumigatus isolate NCPF7099. The method, then:
as §1

In data set [6] the test system is Aspergillus fumigatus NCPF7100. Kind of data set: Broth microdilution assay (modified EUCAST). The data set is classed as cell-based. To be noted: Aspergillus fumigatus, NCPF7100, read-out: MIC75 against Aspergillus fumigatus isolate NCPF7100.
Data set [7] has as its system aspergillus fumigatus (ATCC 13073 [strain: NIH 5233]). Kind of data set: In vivo anti-fungal activity, prophylactic and therapeutic treatment of infected immunocompromised neutropenic mice. Further details: species or system A/J mice. The following applies: prophylactic treatment (days 0, 1, 2 and 3); 0.4 mg/mL.

On to `Cc1cc(N2CCN(c3ccc(C(=O)Nc4ccc(C#N)cc4)cc3)CC2)ccc1OC[C@@H]1CO[C@@](Cn2cncn2)(c2ccc(F)cc2F)C1` [Example 9, 4-(4-(4-(((3R,5R)-5-((1H-1,2,4-triazol-1-yl)methyl)-5-(2,4-difluorophenyl)tetrahydrofuran-3-yl)methoxy)-3-methylphenyl)piperazin-1-yl)-N-(4-cyanophenyl)benzamide], for which the MIC50 in data set [1] came to 0.00521 µM (≈ 0.00359 µg/mL). In data set [2], the half-maximal cytotoxic concentration (CC50) at 1 day was greater than 14.5 µM. Moreover, the MIC stood at 0.114 µM (≈ 0.0786 µg/mL) in data set [3], 0.0291 µM (≈ 0.0201 µg/mL) in data set [4], 0.00739 µM (≈ 0.0051 µg/mL) in data set [5] and 0.0232 µM (≈ 0.016 µg/mL) in data set [6].

In the case of `Cc1cc(N2CCN(c3ccc(C(=O)Nc4cccc(C#N)n4)cc3)CC2)ccc1OC[C@@H]1CO[C@@](Cn2cncn2)(c2ccc(F)cc2F)C1` [Example 36, 4-(4-(4-(((3R, 5R)-5-((1H-1,2,4-triazol-1-yl)methyl)-5-(2,4-difluorophenyl)tetrahydrofuran-3-yl)methoxy)3-methylphenyl)piperazin-1-yl)-N-(6-cyanopyridin-2-yl)benzamide], the MIC50 in data set [1] amounted to 0.00352 µM (≈ 0.00243 µg/mL). The CC50 at 1 day in data set [2] was greater than 14.5 µM. Besides, the MIC in data set [3] is 0.134 µM (≈ 0.0926 µg/mL); in data set [4], 0.041 µM (≈ 0.0283 µg/mL); in data set [5], 0.0445 µM (≈ 0.0307 µg/mL); in data set [6], 0.0346 µM (≈ 0.0239 µg/mL).

As for `O=C(Nc1ccc(F)cc1)c1ccc(N2CCN(c3ccc(OCC4CO[C@@](Cn5cncn5)(c5ccc(F)cc5F)C4)c(Cl)c3)CC2)cc1` (stereo in doubt) [Example 18, 4-(4-(4-(((3R,5R)-5-((1H-1,2,4-triazol-1-yl)methyl)-5-(2,4-difluorophenyl)tetrahydrofuran-3-yl)methoxy)-3-chlorophenyl)piperazin-1-yl)-N-(4-fluorophenyl)benzamide], the MIC50 in data set [1] is 0.0866 µM (≈ 0.0609 µg/mL). The CC50 at 1 day in data set [2] was greater than 14.2 µM. Moreover, the MIC in data set [3] stood at 0.0733 µM (≈ 0.0515 µg/mL); in data set [4], 0.0222 µM (≈ 0.0156 µg/mL); in data set [5], 0.011 µM (≈ 0.00773 µg/mL); in data set [6], 0.0471 µM (≈ 0.0331 µg/mL).

As to `O=C(Nc1ccc(F)cn1)c1ccc(N2CCN(c3ccc(OCC4CO[C@@](Cn5cncn5)(c5ccc(F)cc5F)C4)c(F)c3)CC2)cc1` (stereo in doubt) [Example 40, 4-(4-(4-(((3R, 5R)-5-((1H-1,2,4-triazol-1-yl)methyl)-5-(2,4-difluorophenyl)tetrahydrofuran-3-yl)methoxy)-3-fluorophenyl)piperazin-1-yl)-N-(5-fluoropyridin-2-yl)benzamide], in data set [1], the MIC50 worked out at 0.00687 µM (≈ 0.00472 µg/mL). Also, the CC50 at 1 day in data set [2] is greater than 14.5 µM. For the same compound, the MIC in data set [3] turned out to be 0.0731 µM (≈ 0.0503 µg/mL); in data set [4], 0.0125 µM (≈ 0.0086 µg/mL); in data set [5], 0.024 µM (≈ 0.0165 µg/mL); in data set [6] it was 0.0146 µM (≈ 0.01 µg/mL).

On to `Cc1cc(N2CCN(c3ccc(C(=O)Nc4ccc(F)cc4)cc3)CC2)c(C)cc1OC[C@@H]1CO[C@@](Cn2cncn2)(c2ccc(F)cc2F)C1` [Example 5, 4-(4-(4-(((3R,5R)-5-((1H-1,2,4-Triazol-1-yl)Methyl)-5-(2,4-Difluorophenyl) Tetrahydrofuran-3-yl)Methoxy)-2,5-Dimethylphenyl)Piperazin-1-yl)-N-(4-Fluorophenyl) Benzamide], for which the MIC50 in data set [1] stood at 0.123 µM (≈ 0.0857 µg/mL). In addition, in data set [2], the CC50 at 1 day is greater than 14.4 µM. In addition, the MIC in data set [3] worked out at 0.162 µM (≈ 0.113 µg/mL); in data set [4] it was 0.0133 µM (≈ 0.00927 µg/mL); in data set [5], 0.157 µM (≈ 0.109 µg/mL); in data set [6], 0.0966 µM (≈ 0.0673 µg/mL).

In data set [2], `Cc1cc(N2CCN(c3ccc(C(=O)Nc4ccc(OC(F)(F)F)cn4)cc3)CC2)ccc1OC[C@@H]1CO[C@@](Cn2cncn2)(c2ccc(F)cc2F)C1` [Example 39, 4-(4-(4-(((3R,5R)-5-((1H-1,2,4-triazol-1-yl)methyl)-5-(2,4-difluorophenyl)tetrahydrofuran-3-yl)methoxy)-3-methylphenyl)piperazin-1-yl)-N-(5-(trifluoromethoxy)pyridin-2-yl)benzamide] showed a CC50 at 1 day greater than 13.3 µM. Also, the MIC in data set [3] was found to be 0.0659 µM (≈ 0.0494 µg/mL); in data set [4] it was 0.052 µM (≈ 0.039 µg/mL).

With `Cc1cc(N2CCN(c3ccc(C(=O)Nc4ccc(F)c(F)c4)cc3)CC2)ccc1OC[C@@H]1CO[C@@](Cn2cncn2)(c2ccc(F)cc2F)C1` [Example 27, 4-(4-(4-(((3R, 5R)-5-((1H-1,2,4-triazol-1-yl)methyl)-5-(2,4-difluorophenyl)tetrahydrofuran-3-yl)methoxy)-3-methylphenyl)piperazin-1-yl)-N-(3,4-difluorophenyl)benzamide], the CC50 at 1 day in data set [2] is greater than 14.3 µM. The MIC in data set [3] was 0.136 µM (≈ 0.0953 µg/mL); in data set [4], 0.0193 µM (≈ 0.0135 µg/mL); in data set [5], 0.0127 µM (≈ 0.0089 µg/mL); in data set [6] it was 0.0223 µM (≈ 0.0156 µg/mL).

With `N#Cc1ccc(NC(=O)c2ccc(N3CCN(c4ccc(OCC5CO[C@@](Cn6cncn6)(c6ccc(F)cc6F)C5)c(F)c4)CC3)cc2)c(F)c1` (stereo in doubt) [Example 24, 4-(4-(4-(((3R, 5R)-5-((1H-1,2,4-triazol-1-yl)methyl)-5-(2,4-difluorophenyl)tetrahydrofuran-3-yl)methoxy)3-fluorophenyl)piperazin-1-yl)-N-(4-cyano-2-fluorophenyl)benzamide], the CC50 at 1 day in data set [2] was greater than 14.1 µM. For the same compound, the MIC in data set [3] was 0.191 µM (≈ 0.136 µg/mL); in data set [4] it was 0.0099 µM (≈ 0.00705 µg/mL); in data set [5] it was 0.0205 µM (≈ 0.0146 µg/mL); in data set [6] it was 0.014 µM (≈ 0.00996 µg/mL).

The compound `O=C(Nc1ccc(F)cc1)c1ccc(N2CCN(c3ccc(OCC4CO[C@@](Cn5cncn5)(c5ccc(F)cc5F)C4)c(F)c3)CC2)cc1` (stereo in doubt) [Example 17, 4-(4-(4-(((3R, 5R)-5-((1H-1,2,4-triazol-1-yl)methyl)-5-(2,4-difluorophenyl)tetrahydrofuran-3-yl)methoxy)-3-fluorophenyl)piperazin-1-yl)-N-(4-fluorophenyl)benzamide] displayed a CC50 at 1 day in data set [2] greater than 14.6 µM. Moreover, the MIC is 0.409 µM (≈ 0.281 µg/mL) in data set [3], 0.00215 µM (≈ 0.00148 µg/mL) in data set [4], 0.0185 µM (≈ 0.0127 µg/mL) in data set [5] and 0.0133 µM (≈ 0.00913 µg/mL) in data set [6]. In data set [7], the “% Inhibition versus Infected Controls, GM in BALF” value came out at 45%. Also, in data set [7], the “% Inhibition versus Infected Controls, GM in serum” value is recorded as 72%. In data set [7], the “% Inhibition versus Infected Controls, Lung Fungal Load” value amounted to 83%.

In data set [2], `Cc1cc(N2CCN(c3ccc(C(=O)Nc4ccc(Cl)cn4)cc3)CC2)ccc1OC[C@@H]1CO[C@@](Cn2cncn2)(c2ccc(F)cc2F)C1` [Example 41, 4-(4-(4-(((3R, 5R)-5-((1H-1,2,4-triazol-1-yl)methyl)-5-(2,4-difluorophenyl)tetrahydrofuran-3-yl)methoxy)-3-methylphenyl)piperazin-1-yl)-N-(5-chloropyridin-2-yl)benzamide] had a CC50 at 1 day greater than 14.3 µM. In addition, the values for the MIC in data set [3] and in data set [4] were 0.261 µM (≈ 0.183 µg/mL) and 0.0576 µM (≈ 0.0403 µg/mL), respectively.
